# Reference: US4985352A (The Trustees of Columbia University in the City of New York, priority 1989, dated 1991)
# Test system: NIH3T3 cells
# Experiment: Flow cytometry of intracellular Ca2+ in control untransfected NIH3T3 cells
# Type: cell-based, mouse
# Settings: untransfected NIH3T3 cells loaded with indo-1
compound,measurement,value
"NCCc1c[nH]c2ccc(O)cc12 [serotonin, 5-hydroxytryptamine]",Intracellular Ca2+ response to serotonin,did not respond
